This is an account of results in US12479847B2 (DANA-FARBER CANCER INSTITUTE, INC., priority 2019, dated 2025).

Common to all, as to assay: KINOMEscan (ScanMAX) kinase profiling
Assay type in all cases: binding

Experiment [1] addresses T1, panel of 468 kinases (Homo sapiens, UniProt Q13523).
T1 construct: purchased KINOMEscan (ScanMAX) service
To be noted: PRP4; 1 μM; read-out: % control.

The target of experiment [2] is T2, panel of 468 kinases (Homo sapiens, UniProt P27361).
T2 construct: purchased KINOMEscan (ScanMAX) service
T2 sequence (P27361 whole entry): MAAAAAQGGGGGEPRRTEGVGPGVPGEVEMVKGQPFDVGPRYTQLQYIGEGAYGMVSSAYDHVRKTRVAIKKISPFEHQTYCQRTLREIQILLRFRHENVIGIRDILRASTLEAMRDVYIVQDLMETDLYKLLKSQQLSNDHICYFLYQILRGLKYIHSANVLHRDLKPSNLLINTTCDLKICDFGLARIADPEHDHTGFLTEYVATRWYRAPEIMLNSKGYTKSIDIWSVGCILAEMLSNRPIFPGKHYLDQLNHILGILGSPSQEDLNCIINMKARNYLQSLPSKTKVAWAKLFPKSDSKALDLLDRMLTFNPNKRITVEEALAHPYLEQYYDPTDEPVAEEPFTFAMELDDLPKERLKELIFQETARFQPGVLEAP
To be noted: ERK1; 1 μM; read-out: % control.

The target of experiment [3] is T3, panel of 468 kinases (Homo sapiens, UniProt Q96BR1).
T3 construct: purchased KINOMEscan (ScanMAX) service
T3 sequence (Q96BR1 1-496): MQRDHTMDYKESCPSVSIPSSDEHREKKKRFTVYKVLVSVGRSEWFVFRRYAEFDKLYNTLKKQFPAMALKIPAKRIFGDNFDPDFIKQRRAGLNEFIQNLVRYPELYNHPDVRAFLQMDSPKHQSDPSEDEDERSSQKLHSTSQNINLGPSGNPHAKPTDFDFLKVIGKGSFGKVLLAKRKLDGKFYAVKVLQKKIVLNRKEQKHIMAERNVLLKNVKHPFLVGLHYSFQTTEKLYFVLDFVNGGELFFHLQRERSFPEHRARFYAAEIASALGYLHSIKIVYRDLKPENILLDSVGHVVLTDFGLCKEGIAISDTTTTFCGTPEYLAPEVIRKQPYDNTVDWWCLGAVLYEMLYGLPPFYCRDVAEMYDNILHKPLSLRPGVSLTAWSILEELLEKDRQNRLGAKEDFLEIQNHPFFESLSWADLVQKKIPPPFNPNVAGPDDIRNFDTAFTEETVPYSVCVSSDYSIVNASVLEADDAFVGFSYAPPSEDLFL
To be noted: SGK3; 1 μM; read-out: % control.

In experiment [4] the target is T4, panel of 468 kinases (Homo sapiens, UniProt P36897).
T4 construct: purchased KINOMEscan (ScanMAX) service
T4 sequence (P36897 34-503): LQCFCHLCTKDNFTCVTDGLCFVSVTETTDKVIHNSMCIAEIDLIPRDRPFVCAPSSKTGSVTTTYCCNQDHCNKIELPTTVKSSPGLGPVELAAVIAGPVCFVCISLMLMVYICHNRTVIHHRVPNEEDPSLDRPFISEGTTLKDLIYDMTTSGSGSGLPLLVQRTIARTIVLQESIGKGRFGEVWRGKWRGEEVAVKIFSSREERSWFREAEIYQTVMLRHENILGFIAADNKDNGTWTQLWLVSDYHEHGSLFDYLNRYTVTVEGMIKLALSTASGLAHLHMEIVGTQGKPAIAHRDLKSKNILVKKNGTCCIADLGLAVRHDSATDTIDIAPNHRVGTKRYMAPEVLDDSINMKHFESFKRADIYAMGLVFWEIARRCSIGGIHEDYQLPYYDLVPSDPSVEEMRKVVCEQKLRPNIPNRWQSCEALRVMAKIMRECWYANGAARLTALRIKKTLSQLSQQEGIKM
To be noted: TGFBR1; 1 μM; read-out: % control.

Experiment [5] has as its target T5, panel of 468 kinases (Homo sapiens, UniProt P36888, D835Y).
T5 construct: purchased KINOMEscan (ScanMAX) service
T5 sequence (P36888 27-993 D835Y): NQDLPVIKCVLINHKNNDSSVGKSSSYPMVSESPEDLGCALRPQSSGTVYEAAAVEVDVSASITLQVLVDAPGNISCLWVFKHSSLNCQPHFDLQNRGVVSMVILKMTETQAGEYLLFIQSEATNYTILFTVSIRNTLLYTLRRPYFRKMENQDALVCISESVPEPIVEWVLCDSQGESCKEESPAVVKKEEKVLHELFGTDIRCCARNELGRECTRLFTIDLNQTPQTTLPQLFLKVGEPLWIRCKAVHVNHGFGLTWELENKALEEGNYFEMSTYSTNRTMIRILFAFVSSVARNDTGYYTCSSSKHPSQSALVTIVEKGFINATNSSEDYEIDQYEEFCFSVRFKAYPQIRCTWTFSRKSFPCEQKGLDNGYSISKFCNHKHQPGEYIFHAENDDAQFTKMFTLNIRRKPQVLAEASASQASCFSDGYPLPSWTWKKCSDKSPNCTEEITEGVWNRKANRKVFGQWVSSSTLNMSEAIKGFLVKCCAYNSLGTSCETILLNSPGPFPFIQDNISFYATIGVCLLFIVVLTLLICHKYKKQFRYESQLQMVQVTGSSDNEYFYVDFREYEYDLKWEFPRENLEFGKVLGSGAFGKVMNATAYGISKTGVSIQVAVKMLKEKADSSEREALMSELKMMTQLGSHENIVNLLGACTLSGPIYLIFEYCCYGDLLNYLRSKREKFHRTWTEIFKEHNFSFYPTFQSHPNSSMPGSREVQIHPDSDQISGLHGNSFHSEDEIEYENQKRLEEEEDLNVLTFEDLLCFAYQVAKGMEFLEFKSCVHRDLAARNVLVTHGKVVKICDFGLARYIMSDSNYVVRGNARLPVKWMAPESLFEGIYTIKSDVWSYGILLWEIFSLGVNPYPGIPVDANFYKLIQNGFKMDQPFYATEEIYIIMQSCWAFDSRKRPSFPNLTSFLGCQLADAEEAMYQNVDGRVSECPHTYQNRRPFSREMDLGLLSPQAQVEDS
As to conditions: FLT3(D835Y); 1 μM; read-out: % control.

For experiment [6], the target named is T6, panel of 468 kinases (Homo sapiens, UniProt Q96Q40).
T6 construct: purchased KINOMEscan (ScanMAX) service
T6 sequence (Q96Q40 whole entry): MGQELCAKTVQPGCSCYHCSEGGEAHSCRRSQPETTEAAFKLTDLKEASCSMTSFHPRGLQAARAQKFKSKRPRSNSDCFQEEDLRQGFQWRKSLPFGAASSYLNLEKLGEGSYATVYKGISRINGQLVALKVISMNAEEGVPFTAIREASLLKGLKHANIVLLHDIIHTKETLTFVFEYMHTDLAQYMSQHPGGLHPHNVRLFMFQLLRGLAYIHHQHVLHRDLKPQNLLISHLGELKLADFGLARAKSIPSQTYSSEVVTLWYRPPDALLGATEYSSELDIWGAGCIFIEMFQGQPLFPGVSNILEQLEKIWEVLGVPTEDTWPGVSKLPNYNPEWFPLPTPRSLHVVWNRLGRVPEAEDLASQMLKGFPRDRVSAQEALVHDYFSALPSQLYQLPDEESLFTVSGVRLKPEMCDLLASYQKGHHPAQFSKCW
As to conditions: PFTAIRE2; 1 μM; read-out: % control.

The target of experiment [7] is T7, panel of 468 kinases (Homo sapiens, UniProt P11309).
T7 construct: purchased KINOMEscan (ScanMAX) service
T7 sequence (P11309 whole entry): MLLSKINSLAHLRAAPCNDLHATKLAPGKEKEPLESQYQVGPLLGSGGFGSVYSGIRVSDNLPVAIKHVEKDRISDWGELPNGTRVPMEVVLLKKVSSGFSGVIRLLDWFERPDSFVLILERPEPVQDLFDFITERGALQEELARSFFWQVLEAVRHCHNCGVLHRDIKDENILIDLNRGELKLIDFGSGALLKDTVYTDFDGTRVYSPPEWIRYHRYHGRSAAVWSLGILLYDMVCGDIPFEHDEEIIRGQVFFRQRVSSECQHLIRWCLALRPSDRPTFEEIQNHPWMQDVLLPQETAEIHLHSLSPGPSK
To be noted: PIM1; 1 μM; read-out: % control.

Experiment [8] has as its target T8, panel of 468 kinases (Homo sapiens, UniProt Q16539).
T8 construct: purchased KINOMEscan (ScanMAX) service
As to conditions: p38-alpha; 1 μM; read-out: % control.

For experiment [9], the target named is T9, panel of 468 kinases (Homo sapiens, UniProt P00519, Y253F).
T9 construct: purchased KINOMEscan (ScanMAX) service
To be noted: ABL1(Y253F)-phosphorylated; 1 μM; read-out: % control.

Experiment [10] deals with T10, panel of 468 kinases (Homo sapiens, UniProt P10721, T670I/V559D).
T10 construct: purchased KINOMEscan (ScanMAX) service
T10 sequence (P10721 26-976 V559D/T670I): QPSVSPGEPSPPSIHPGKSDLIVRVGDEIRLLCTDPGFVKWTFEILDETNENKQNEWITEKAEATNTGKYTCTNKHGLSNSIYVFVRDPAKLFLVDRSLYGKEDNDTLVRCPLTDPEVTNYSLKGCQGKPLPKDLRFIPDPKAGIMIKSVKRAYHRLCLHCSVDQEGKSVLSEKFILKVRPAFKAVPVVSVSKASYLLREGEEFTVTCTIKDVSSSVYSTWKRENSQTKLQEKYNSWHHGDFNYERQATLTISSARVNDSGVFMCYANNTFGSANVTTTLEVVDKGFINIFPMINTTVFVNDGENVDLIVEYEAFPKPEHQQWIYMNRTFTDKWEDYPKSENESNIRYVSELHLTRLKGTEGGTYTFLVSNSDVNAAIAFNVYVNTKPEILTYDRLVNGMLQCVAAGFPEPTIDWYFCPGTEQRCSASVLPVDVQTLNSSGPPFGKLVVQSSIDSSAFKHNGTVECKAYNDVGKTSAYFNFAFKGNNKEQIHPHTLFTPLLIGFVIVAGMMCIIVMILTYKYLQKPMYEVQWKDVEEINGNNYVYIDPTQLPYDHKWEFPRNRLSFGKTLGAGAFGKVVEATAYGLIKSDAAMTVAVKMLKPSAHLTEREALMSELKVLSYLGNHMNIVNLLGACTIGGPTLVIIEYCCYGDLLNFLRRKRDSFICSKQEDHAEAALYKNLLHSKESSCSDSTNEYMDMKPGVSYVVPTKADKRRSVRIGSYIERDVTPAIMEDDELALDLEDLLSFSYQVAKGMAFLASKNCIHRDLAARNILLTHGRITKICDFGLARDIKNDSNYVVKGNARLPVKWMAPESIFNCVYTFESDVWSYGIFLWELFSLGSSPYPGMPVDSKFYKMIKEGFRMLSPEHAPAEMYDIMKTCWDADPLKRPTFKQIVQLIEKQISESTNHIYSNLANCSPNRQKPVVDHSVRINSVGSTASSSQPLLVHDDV
To be noted: KIT(V559D,T670I); 1 μM; read-out: % control.

T8 sequence (Q16539 whole entry): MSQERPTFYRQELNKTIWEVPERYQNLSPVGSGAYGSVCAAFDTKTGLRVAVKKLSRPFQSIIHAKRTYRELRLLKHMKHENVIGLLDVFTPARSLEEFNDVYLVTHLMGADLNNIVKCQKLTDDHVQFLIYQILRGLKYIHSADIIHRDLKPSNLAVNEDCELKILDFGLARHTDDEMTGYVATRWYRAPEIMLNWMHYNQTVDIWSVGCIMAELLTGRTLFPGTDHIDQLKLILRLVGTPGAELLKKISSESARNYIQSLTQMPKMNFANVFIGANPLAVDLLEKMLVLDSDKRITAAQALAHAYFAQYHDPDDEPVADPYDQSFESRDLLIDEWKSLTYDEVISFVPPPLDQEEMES
T1 sequence (Q13523 whole entry): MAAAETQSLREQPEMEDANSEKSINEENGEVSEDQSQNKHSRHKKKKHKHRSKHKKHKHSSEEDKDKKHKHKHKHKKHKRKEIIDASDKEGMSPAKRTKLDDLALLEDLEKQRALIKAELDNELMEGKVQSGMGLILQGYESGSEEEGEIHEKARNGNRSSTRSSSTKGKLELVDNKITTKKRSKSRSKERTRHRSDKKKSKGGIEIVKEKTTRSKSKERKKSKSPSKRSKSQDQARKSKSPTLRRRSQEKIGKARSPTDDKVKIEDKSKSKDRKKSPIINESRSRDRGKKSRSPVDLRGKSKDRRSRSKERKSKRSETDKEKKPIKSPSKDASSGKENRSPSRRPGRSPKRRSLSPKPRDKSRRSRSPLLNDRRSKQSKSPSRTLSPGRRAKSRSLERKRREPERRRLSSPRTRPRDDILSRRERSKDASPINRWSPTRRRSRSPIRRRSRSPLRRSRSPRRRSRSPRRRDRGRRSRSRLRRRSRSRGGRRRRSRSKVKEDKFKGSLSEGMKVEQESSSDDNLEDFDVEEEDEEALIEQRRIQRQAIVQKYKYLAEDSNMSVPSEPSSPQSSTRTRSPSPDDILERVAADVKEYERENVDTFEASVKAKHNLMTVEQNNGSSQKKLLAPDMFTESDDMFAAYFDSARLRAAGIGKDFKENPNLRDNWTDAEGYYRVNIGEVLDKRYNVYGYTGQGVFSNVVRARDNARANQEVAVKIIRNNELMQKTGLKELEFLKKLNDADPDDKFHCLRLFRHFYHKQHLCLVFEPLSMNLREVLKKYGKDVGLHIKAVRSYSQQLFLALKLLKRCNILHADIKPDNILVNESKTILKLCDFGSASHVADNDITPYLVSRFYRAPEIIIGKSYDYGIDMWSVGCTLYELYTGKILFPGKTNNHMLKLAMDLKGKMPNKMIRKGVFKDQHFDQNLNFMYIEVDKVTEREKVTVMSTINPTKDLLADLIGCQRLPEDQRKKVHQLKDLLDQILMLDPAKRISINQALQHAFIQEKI

As for `CNc1nc(Nc2ccc(S(=O)(=O)N3CCC(N4CCOCC4)CC3)cc2OC)nc2[nH]cc(Cl)c12` [Compound 12, 5-chloro-N2-(2-methoxy-4-((4-morpholinopiperidin-1-yl)sulfonyl)phenyl)-N4-methyl-7H-pyrrolo[2,3-d]pyrimidine-2,4-diamine], the remaining binding at 1 µM turned out to be 100% in [1]; 100% in experiment [2]; 76% in experiment [3]; 86% in experiment [4]; 96% in experiment [5]; 100% in [6]. In addition, the remaining binding at 1 µM in [7] came to 100%; in experiment [8], 100%; in experiment [9] it was 51%; in experiment [10], 89%.

In the case of `CNc1nc(Nc2ccc(C(=O)N3CCC(N4CCOCC4)CC3)c3c2OCO3)nc2[nH]cc(Cl)c12` [Compound 75, (7-((5-chloro-4-(methylamino)-7H-pyrrolo[2,3-d]pyrimidin-2-yl)amino)benzo[d][1,3]dioxol-4-yl)(4-morpholinopiperidin-1-yl)methanone], the remaining binding at 1 µM was 100% in experiment [1]; 100% in experiment [2]; 32% in experiment [3]; 68% in experiment [4]; 14% in experiment [5]; 100% in experiment [6]. Moreover, the remaining binding at 1 µM came to 99% in experiment [7], 100% in [8], 53% in experiment [9] and 62% in [10].

For the compound `CNc1nc(Nc2ccc(P3(=O)CCN(C4CCOCC4)CC3)cc2OC)nc2[nH]cc(Cl)c12` [Compound 77, 4-(4-((5-chloro-4-(methylamino)-7H-pyrrolo[2,3-d]pyrimidin-2-yl)amino)-3-methoxyphenyl)-1-(tetrahydro-2H-pyran-4-yl)-1,4-azaphosphinane 4-oxide], the remaining binding at 1 µM in [1] worked out at 100%; in experiment [2] it was 100%; in experiment [3] it was 78%; in experiment [4], 72%; in [5], 47%; in experiment [6], 100%. Further, the remaining binding at 1 µM in [7] amounted to 100%; in experiment [8], 100%; in experiment [9] it was 53%; in experiment [10] it was 100%.
